# Where a SMILES comes first, the peptide text is derived from it.
# Tests used:
# [1] = system: HeLa cells stably transfected with human ABCA1 cDNA (ABCA1 cells); test: Cholesterol and phospholipid efflux from ABCA1 transfected cells; format: cell-based; details: for cholesterol efflux to other detergents compared with taurodeoxycholate: sublytic concentrations, ABCA1 cells and control cells; for cholesterol and phospholipid efflux from ABCA1 cells (in words): 18 hours
# Experimental: (§1) Percentage efflux was calculated after subtracting the radioactive counts in the blank media (αMEM plus 1 mg/ml of BSA), and expressed as the percent of total radioactive counts removed from the cells during the efflux period.
# (§2) Cell fixation was performed by a 10 minute treatment with 3% paraformaldehyde in phosphate buffered saline (PBS), followed by three washes with blank media. Lactate dehydrogenase (LDH) release from cells into the media was measured enzymatically (Roche Diagnostics, Indianapolis, Ind.) and expressed, after subtraction of LDH released into blank media, as the percentage of total cell LDH. Total cell LDH was determined after cell solubilization with 1% Triton X-100.
# [2] = system: red blood cells; test: Red blood cell hemolysis assay; format: cell-based; details: 1 hour at 37° C.
# Experimental: Red blood cells were incubated with the indicated concentration of the peptides for 1 hour at 37° C. Results are expressed as the mean of triplicates±1 SD.
# Approximately 25% of the red blood cells were lysed after 1 hour at the maximum dose tested (FIG. 9). Overall, the modified peptides containing the Ala substitutions were less cytotoxic, and the degree of cytotoxicity closely correlated with the number of Ala substitutions.
# [3] = system: HeLa cells transfected with only a hygromycin-resistant control plasmid (control cells); test: Cholesterol and phospholipid efflux from control cells; format: cell-based, human; details: for cholesterol and phospholipid efflux from control cells (in words): 18 hours
# Experimental: as §1, §2
# [4] = system: ABCA1 cells and control cells; test: Cell morphology by light microscopy during efflux experiments; format: cell-based, human; details: light microscopy, during efflux experiments
compound,measurement,setting,value
NP-40,cholesterol efflux to other detergents compared with taurodeoxycholate,[1],Nearly identical results
CC(C)C[C@H](NC(=O)[C@H](Cc1c[nH]c2ccccc12)NC(=O)[C@H](CC(=O)O)NC(=O)[C@@H]1CCCN1C(=O)[C@H](Cc1ccccc1)NC(=O)[C@H](C)NC(=O)[C@H](CCC(=O)O)NC(=O)[C@H](CCCCN)NC(=O)[C@H](CC(C)C)NC(=O)[C@H](CCCCN)NC(=O)[C@H](CCC(=O)O)NC(=O)[C@H](C)NC(=O)[C@@H](NC(=O)[C@H](CCCCN)NC(=O)[C@H](CC(=O)O)NC(=O)[C@H](Cc1ccc(O)cc1)NC(=O)[C@H](Cc1ccccc1)NC(=O)[C@H](C)NC(=O)[C@H](CCCCN)NC(=O)[C@H](CC(C)C)NC(=O)[C@H](Cc1c[nH]c2ccccc12)NC(=O)[C@@H](N)CC(=O)O)C(C)C)C(=O)N[C@@H](CCCCN)C(=O)N[C@@H](C)C(=O)N[C@@H](Cc1ccccc1)C(=O)N[C@@H](Cc1ccc(O)cc1)C(=O)N[C@@H](CC(=O)O)C(=O)N[C@@H](CCCCN)C(=O)N[C@H](C(=O)N[C@@H](C)C(=O)N[C@@H](CCC(=O)O)C(=O)N[C@@H](CCCCN)C(=O)N[C@@H](C)C(=O)N[C@@H](CCCCN)C(=O)N[C@@H](CCC(=O)O)C(=O)N[C@@H](C)C(=O)N[C@@H](C)C(=O)O)C(C)C [2A] (H-DWLKAFYDKVAEKLKEAFPDWLKAFYDKVAEKAKEAA-OH; N-terminus and C-terminus assumed),hemolysis / cytotoxicity to red blood cells (in words),[2],moderate degree of hemolysis
"RMRITERDDFRGQMSEITDDCPSLQDRFHLTEVHSLRVLEGS (Gamma crystalline peptide.) [contains two non-amphipathic alpha helices of approximately the same length as the helices on 37pA, reference compound]",cholesterol and phospholipid efflux from control cells (in words),[3],completely ineffective
same,cholesterol and phospholipid efflux from ABCA1 cells (in words),[1],completely ineffective
CC(C)C[C@H](NC(=O)[C@H](Cc1c[nH]c2ccccc12)NC(=O)[C@H](CC(=O)O)NC(=O)[C@@H]1CCCN1C(=O)[C@H](Cc1ccccc1)NC(=O)[C@H](C)NC(=O)[C@H](CCC(=O)O)NC(=O)[C@H](CCCCN)NC(=O)[C@H](CC(C)C)NC(=O)[C@H](CCCCN)NC(=O)[C@H](CCC(=O)O)NC(=O)[C@H](C)NC(=O)[C@@H](NC(=O)[C@H](CCCCN)NC(=O)[C@H](CC(=O)O)NC(=O)[C@H](Cc1ccc(O)cc1)NC(=O)[C@H](Cc1ccccc1)NC(=O)[C@H](C)NC(=O)[C@H](CCCCN)NC(=O)[C@H](CC(C)C)NC(=O)[C@H](Cc1c[nH]c2ccccc12)NC(=O)[C@@H](N)CC(=O)O)C(C)C)C(=O)N[C@@H](CCCCN)C(=O)N[C@@H](C)C(=O)N[C@@H](C)C(=O)N[C@@H](Cc1ccc(O)cc1)C(=O)N[C@@H](CC(=O)O)C(=O)N[C@@H](CCCCN)C(=O)N[C@H](C(=O)N[C@@H](C)C(=O)N[C@@H](CCC(=O)O)C(=O)N[C@@H](CCCCN)C(=O)N[C@@H](C)C(=O)N[C@@H](CCCCN)C(=O)N[C@@H](CCC(=O)O)C(=O)N[C@@H](C)C(=O)N[C@@H](C)C(=O)O)C(C)C [3A] (H-DWLKAFYDKVAEKLKEAFPDWLKAAYDKVAEKAKEAA-OH; N-terminus and C-terminus assumed),hemolysis / cytotoxicity to red blood cells (in words),[2],moderate degree of hemolysis
CC(C)C[C@H](NC(=O)[C@H](CCCCN)NC(=O)[C@H](CCC(=O)O)NC(=O)[C@H](C)NC(=O)[C@@H](NC(=O)[C@H](CCCCN)NC(=O)[C@H](CC(=O)O)NC(=O)[C@H](Cc1ccc(O)cc1)NC(=O)[C@H](Cc1ccccc1)NC(=O)[C@H](C)NC(=O)[C@H](CCCCN)NC(=O)[C@H](CC(C)C)NC(=O)[C@H](Cc1c[nH]c2ccccc12)NC(=O)[C@@H](N)CC(=O)O)C(C)C)C(=O)N[C@@H](CCCCN)C(=O)N[C@@H](CCC(=O)O)C(=O)N[C@@H](C)C(=O)N[C@@H](Cc1ccccc1)C(=O)N1CCC[C@H]1C(=O)N[C@@H](CC(=O)O)C(=O)N[C@@H](Cc1c[nH]c2ccccc12)C(=O)N[C@@H](C)C(=O)N[C@@H](CCCCN)C(=O)N[C@@H](C)C(=O)N[C@@H](C)C(=O)N[C@@H](Cc1ccc(O)cc1)C(=O)N[C@@H](CC(=O)O)C(=O)N[C@@H](CCCCN)C(=O)N[C@@H](C)C(=O)N[C@@H](C)C(=O)N[C@@H](CCC(=O)O)C(=O)N[C@@H](CCCCN)C(=O)N[C@@H](C)C(=O)N[C@@H](CCCCN)C(=O)N[C@@H](CCC(=O)O)C(=O)N[C@@H](C)C(=O)N[C@@H](C)C(=O)O [5A] (H-DWLKAFYDKVAEKLKEAFPDWAKAAYDKAAEKAKEAA-OH; N-terminus and C-terminus assumed),hemolysis / cytotoxicity to red blood cells (in words),[2],no appreciable hemolysis
CC(C)C[C@H](NC(=O)[C@H](Cc1c[nH]c2ccccc12)NC(=O)[C@H](CC(=O)O)NC(=O)[C@@H]1CCCN1C(=O)[C@H](Cc1ccccc1)NC(=O)[C@H](C)NC(=O)[C@H](CCC(=O)O)NC(=O)[C@H](CCCCN)NC(=O)[C@H](CC(C)C)NC(=O)[C@H](CCCCN)NC(=O)[C@H](CCC(=O)O)NC(=O)[C@H](C)NC(=O)[C@@H](NC(=O)[C@H](CCCCN)NC(=O)[C@H](CC(=O)O)NC(=O)[C@H](Cc1ccc(O)cc1)NC(=O)[C@H](Cc1ccccc1)NC(=O)[C@H](C)NC(=O)[C@H](CCCCN)NC(=O)[C@H](CC(C)C)NC(=O)[C@H](Cc1c[nH]c2ccccc12)NC(=O)[C@@H](N)CC(=O)O)C(C)C)C(=O)N[C@@H](CCCCN)C(=O)N[C@@H](C)C(=O)N[C@@H](Cc1ccccc1)C(=O)N[C@@H](Cc1ccc(O)cc1)C(=O)N[C@@H](CC(=O)O)C(=O)N[C@@H](CCCCN)C(=O)N[C@H](C(=O)N[C@@H](C)C(=O)N[C@@H](CCC(=O)O)C(=O)N[C@@H](CCCCN)C(=O)N[C@@H](C)C(=O)N[C@@H](CCCCN)C(=O)N[C@@H](CCC(=O)O)C(=O)N[C@@H](C)C(=O)N[C@@H](Cc1ccccc1)C(=O)O)C(C)C [1A] (H-DWLKAFYDKVAEKLKEAFPDWLKAFYDKVAEKAKEAF-OH; N-terminus and C-terminus assumed),hemolysis / cytotoxicity to red blood cells (in words),[2],moderate degree of hemolysis
CC(C)C[C@H](NC(=O)[C@H](Cc1c[nH]c2ccccc12)NC(=O)[C@H](CC(=O)O)NC(=O)[C@@H]1CCCN1C(=O)[C@H](Cc1ccccc1)NC(=O)[C@H](C)NC(=O)[C@H](CCC(=O)O)NC(=O)[C@H](CCCCN)NC(=O)[C@H](CC(C)C)NC(=O)[C@H](CCCCN)NC(=O)[C@H](CCC(=O)O)NC(=O)[C@H](C)NC(=O)[C@@H](NC(=O)[C@H](CCCCN)NC(=O)[C@H](CC(=O)O)NC(=O)[C@H](Cc1ccc(O)cc1)NC(=O)[C@H](Cc1ccccc1)NC(=O)[C@H](C)NC(=O)[C@H](CCCCN)NC(=O)[C@H](CC(C)C)NC(=O)[C@H](Cc1c[nH]c2ccccc12)NC(=O)[C@@H](N)CC(=O)O)C(C)C)C(=O)N[C@@H](CCCCN)C(=O)N[C@@H](C)C(=O)N[C@@H](C)C(=O)N[C@@H](Cc1ccc(O)cc1)C(=O)N[C@@H](CC(=O)O)C(=O)N[C@@H](CCCCN)C(=O)N[C@@H](C)C(=O)N[C@@H](C)C(=O)N[C@@H](CCC(=O)O)C(=O)N[C@@H](CCCCN)C(=O)N[C@@H](C)C(=O)N[C@@H](CCCCN)C(=O)N[C@@H](CCC(=O)O)C(=O)N[C@@H](C)C(=O)N[C@@H](C)C(=O)O [4A] (H-DWLKAFYDKVAEKLKEAFPDWLKAAYDKAAEKAKEAA-OH; N-terminus and C-terminus assumed),hemolysis / cytotoxicity to red blood cells (in words),[2],no appreciable hemolysis
C[C@H](CCC(=O)NCCC[N+](C)(C)CCCS(=O)(=O)[O-])[C@H]1CC[C@H]2[C@@H]3[C@H](O)C[C@@H]4C[C@H](O)CC[C@]4(C)[C@H]3C[C@H](O)[C@]12C [CHAPS],cholesterol efflux to other detergents compared with taurodeoxycholate,[1],Nearly identical results
"DWLKAFYDKVAEKLKEAFPDWLKAFYDKVA EKLKEAF [37pA, reference compound]",cholesterol and phospholipid efflux from control cells (in words),[3],able to mediate cholesterol efflux from a control HeLa cell line
same,cholesterol and phospholipid efflux from ABCA1 cells (in words),[1],promoted ABCA1-mediated cholesterol efflux
"C[C@H](CCC(=O)NCCS(=O)(=O)O)[C@H]1CC[C@H]2[C@@H]3CC[C@@H]4C[C@H](O)CC[C@]4(C)[C@H]3C[C@H](O)[C@]12C [taurodeoxycholate, reference compound]",cholesterol efflux from control cells to detergent,"[3]; 0.02%, 1 hour",Approximately the same amount of cholesterol efflux
same,effect on cell morphology,[4],did not alter the morphology of the cells
same,cholesterol efflux from ABCA1 cells to detergent after fixation,"[1]; 0.02%, 1 hour, after fixation with 3% paraformaldehyde",slightly increased after fixation
same,cholesterol efflux from ABCA1 cells to detergent,"[1]; 0.02%, 1 hour, before fixation",small amount of cholesterol efflux

# Reference: US8835378B2, “Multi-domain amphipathic helical peptides and methods of their use” (The United States of America as represented by the …, priority 2004, dated 2014)
